Paper PMC7822874, “Chemoprotective antimalarials identified through quantitative high-throughput screening of Plasmodium blood and liver stage parasites” (Scientific Reports, 2021)
Values joined by “and” are separate entries in the source; they are usually repeats but may differ in a detail not shown here. Equal entries are not always repeated.

What was measured:
in vitro = settings: human, n = 1
[1] = test system: Plasmodium falciparum Dd2 asexual blood stage parasites; experiment: microbe, parasite or virus in culture; set-up: species or system Plasmodium falciparum Dd2 in human erythrocytes; single determination (one 11-point concentration-response curve); settings: Plasmodium falciparum, DD2, Erythrocyte, 72 h; read-out: AC50
[2] = test system: T1, Plasmodium falciparum Dd2-attB-ScDHODH (transgenic line expressing yeast DHODH), asexual blood stages; experiment: organism not typed; set-up: replicate k of 3 (each line is one of three independent assays; the three lines of one compound and parasite line follow each other); settings: 72 h, n = 1
T1 construct: Dd2-attB-ScDHODH, the transgenic line that expresses yeast DHODH
Summary of the method: (§1)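 Only some compounds were profiled here. Each was assayed three independent times against the Dd2-attB parent and its yeast-DHODH-overexpressing derivative.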

[3] = test system: P. falciparum Dd2 Cytb G131S; experiment: SYBR Green ABS proliferation assay, NCGC00374598 selected clone C11; format: cell-based, Plasmodium falciparum; settings: Plasmodium falciparum, DD2, […]; averaged from three independent replicates; top concentration 29 µM; read-out: Average AC50 (Log[M]), NCGC00374598 clone C11 (Cytb G131S) (converted)
Summary of the method: (§2)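 Drug-selected Dd2 clones bearing the cytochrome b mutation were cultured at 37 °C under 5% CO2, 5% O2, 90% N2. Growth was read at 72 h by SYBR Green-I fluorescence, normalized to controls as percent response.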

[4] = test system: P. falciparum Dd2 Cytb F123L; experiment: SYBR Green ABS proliferation assay, NCGC00473217 selected clone G08; format: cell-based, Plasmodium falciparum; settings: Plasmodium falciparum, DD2, […]; averaged from three independent replicates; top concentration 29 µM; read-out: Average AC50 (Log[M]), NCGC00473217 clone G08 (Cytb F123L) (converted)
Summary of the method: as §2

[5] = test system: T2, Plasmodium falciparum Dd2-attB (parental line), asexual blood stages; experiment: microbe, parasite or virus in culture; set-up: replicate k of 3 (each line is one of three independent assays; the three lines of one compound and parasite line follow each other); settings: 72 h; n = 1
T2 construct: Dd2-attB, the isogenic parental line
Summary of the method: as §1

[6] = test system: P. falciparum Dd2 (clone B2) asexual blood stage parasites; experiment: P. falciparum Dd2 asexual blood stage SYBR Green-I 72 h proliferation assay (qHTS); format: cell-based, Plasmodium falciparum; settings: Plasmodium falciparum, DD2, Dd2 parental; Hill fit, averaged from three independent replicates; top concentration 29 µM; read-out: Average AC50 (Log[M]), Dd2 (converted)
[7] = test system: P. falciparum Dd2 Cytb V259L; experiment: SYBR Green ABS proliferation assay, NCGC00473217 selected clone F06; format: cell-based, Plasmodium falciparum; settings: Plasmodium falciparum, DD2, […]; averaged from three independent replicates; top concentration 29 µM; read-out: Average AC50 (Log[M]), NCGC00473217 clone F06 (Cytb V259L) (converted)
Summary of the method: as §2

[8] = test system: P. falciparum Dd2 Cytb A122D; experiment: SYBR Green ABS proliferation assay, NCGC00473217 selected clone F12; format: cell-based, Plasmodium falciparum; settings: Plasmodium falciparum, DD2, […]; averaged from three independent replicates; top concentration 29 µM; read-out: Average AC50 (Log[M]), NCGC00473217 clone F12 (Cytb A122D) (converted)
Summary of the method: as §2

| SMILES | CC50 at 48 h (in vitro; HepG2 cells) [µM] | further results |
| --- | --- | --- |
| C[n+]1c2ccccc2nc2ccc(NCCO)cc21.[O-][Cl+3]([O-])([O-])[O-] | – | CC50 at 48 h (in vitro; hepg2): 13.7 µM; AC50 [1]: 1.19 µM |
| c1ccc(-c2nc(NCc3ccco3)c3ccccc3n2)nc1 [MLS000040057-01] | 27.3 | AC50 [1]: 5.96 µM |
| Cc1cc(O)c(-c2cc(C(=O)Nc3ccc(S(=O)(=O)N4CCOCC4)cc3)[nH]n2)cc1C [MLS000042703-01] | 27.3 | AC50 [1]: 1.68 µM |
| CCn1c(C)nc2cc(-c3nc4n(n3)Cc3ccccc3-4)ccc21 [MLS000054270-01] | 12.2 | – |
| CCCOC(=O)c1[nH]c2c(c1C)C(=O)CC(c1cc(OC)c(OC)c(OC)c1)C2 (stereo not drawn) [MLS000116504-01] | 21.7 | AC50 [1]: 6.68 µM |
| COc1cnc(-c2ccccn2)nc1Sc1ccc(Cl)cc1 [MLS000325700-01] | 24.3 | AC50 [1]: 5.96 µM |
| COc1cc(C(=O)N/N=C(/c2ccccc2)c2ccccn2)cc(OC)c1OC [MLS000390992-01] | 10.9 | – |
| Cc1sc(NC(=O)c2ccco2)c(C(c2cccnc2)N2CCC(C)CC2)c1C (stereo not drawn) [MLS000536186-01] | 8.62 | AC50 [1]: 5.31 µM |
| CC1CCN(S(=O)(=O)c2ccc3c(c2)C(=NO)c2cc(S(=O)(=O)N4CCC(C)CC4)ccc2-3)CC1 [MLS000551434-01] | – | CC50 at 48 h (in vitro; hepg2): 21.7 µM; AC50 [1]: 1.68 µM |
| CC1=CC(=CNNC(=O)c2n[nH]cc2Br)C(=O)C=C1 [MLS000555044-01] | 19.3 | – |
| Cc1cc(NCc2ccccn2)n2nc(C)c(-c3ccc(Cl)cc3)c2n1 [MLS000559839-01] | 9.68 | – |
| O=C(/C(=C/c1ccc(Cl)cc1)c1nc2ccccc2[nH]1)c1cccs1 [MLS000565128-01] | 24.3 | AC50 [1]: 2.11 µM |
| Cc1c(NN=C(C#N)C(=O)c2ccccc2)c(=O)n(-c2ccccc2)n1C [MLS000567622-01] | 12.2 | AC50 [1]: 6.68 µM |
| COc1ccc(Nc2nc(N3CCCCC3)c3ccccc3n2)cc1 [MLS000569818-01] | 30.6 | – |
| Cc1[nH]n(-c2ccccc2)c(=O)c1/C=N/Nc1nncc(-c2ccccc2)n1 [MLS000579075-01] | 13.7 | AC50 [1]: 4.22 µM |
| CCOC(=O)c1cnc(-n2nc(C)cc2C)nc1NNc1nc(-c2ccccc2)cc(-c2ccccc2)n1 [MLS000580862-01] | 19.3 | AC50 [1]: 2.11 µM |
| COc1ccc(/C=N/Nc2cc(C)nc(-n3nc(C)cc3C)n2)c(OC)c1 [MLS000589396-01] | 24.3 | AC50 [1]: 5.31 µM |
| Nc1nc(-c2ccccn2)nc(N)c1Cc1ccc(Cl)cc1Cl [MLS000691892-01] | 13.7 | AC50 [1]: 7.5 µM |
| Nc1nc(-c2ccccn2)nc(N)c1Cc1ccccc1F [MLS000691905-01] | 27.3 | AC50 [1]: 13.3 µM |

| SMILES | CC50 at 48 h (in vitro; HepG2 cells) [µM] | further results |
| --- | --- | --- |
| COc1cnc(-c2ccccn2)nc1Sc1ccccc1 [MLS000692209-01] | 24.3 | – |
| COc1cnc(-c2ccccn2)nc1NC(C)C [MLS000692222-01] | 15.3 | AC50 [1]: 5.31 µM |
| N#Cc1c(Cl)nsc1NC(=O)c1ccccc1 [MLS000696348-01] | 13.7 | – |
| c1csc(-c2cn3ccc4ccccc4c3n2)c1 [MLS000711806-01] | 15.3 | – |
| CCCCC(=O)NC(c1cccs1)c1cc(Cl)c2cccnc2c1O (stereo not drawn) [MLS000714525-01] | 13.7 | – |
| C=C1C(=O)O[C@@H]2C[C@@H](C)[C@@H]3C=CC(=O)[C@@]3(C)[C@@H](OC(=O)CC(=O)O[C@H]3[C@@H]4C(=C)C(=O)O[C@@H]4C[C@@H](C)[C@@H]4C=CC(=O)[C@]43C)[C@H]12 [MLS000728515-01] | – | CC50 at 48 h (in vitro; hepg2): 10.9 µM |
| Oc1ccccc1C(Nc1nccs1)c1ccc2cccnc2c1O (stereo not drawn) [MLS000759877-01] | 19.3 | – |
| Cc1nn2c(NCc3ccccn3)cc(C(C)C)nc2c1-c1ccccc1 [MLS000762881-01] | 12.2 | – |
| O=C1C=CC(Cl)=CC1=CNNC(=O)c1ccncc1 [MLS000766661-01] | 12.2 | – |
| COc1cc(OC)cc(C(=O)Oc2c(CN3CCOCC3)cc(Cl)c3cccnc23)c1 [MLS000770997-01] | 12.2 | – |
| CCOC(=O)C1=C(c2ccccc2)N=C(N)NC1c1ccc(OCc2ccc(Cl)cc2)c(OC)c1 (stereo not drawn) [MLS000771452-01] | 34.3 | – |
| CC(NNC(=O)C12CCC(C)(C(=O)O1)C2(C)C)=C1C=CC=CC1=O (stereo not drawn) [MLS000778293-01] | 12.2 | – |
| COC1=CC=CC(=CNNc2cc(N3CCOCC3)ncn2)C1=O [MLS001202693-01] | 12.2 | – |
| CC(=O)NC(c1ccccc1)c1cc(Cl)c2cccnc2c1O (stereo not drawn) [MLS001210949-01] | 12.2 | – |
| CCCCC(=O)NC(c1ccc(Cl)cc1Cl)c1ccc2cccnc2c1O (stereo not drawn) [MLS001212967-01] | 21.7 | – |
| C=C1C(=O)OC2CC(C)C3C=CC(=O)C3(C)C(O)C12 (stereo not drawn) [MLS002701927-01] | – | CC50 at 48 h (in vitro; hepg2): 15.3 µM |
| CCCOc1ccc(C(=O)Nc2ccc(-c3cc4ccccc4oc3=O)c(C)c2)cc1 [NCGC00098245-01] | 24.3 | – |
| COc1ccc(CCNc2nc3c(c(=O)n(C)c(=O)n3C)n2Cc2ccc(F)cc2)cc1OC [NCGC00102121-01] | 13.7 | – |
| CC(=O)c1cccc(N[S+](=O)([O-])c2cc(-c3cnc(C4CC4)o3)ccc2C)c1 [NCGC00131168-01] | 30.6 | – |

| SMILES | CC50 at 48 h (in vitro; HepG2 cells) [µM] | further results |
| --- | --- | --- |
| CCNc1nc2c(c(=O)n(C)c(=O)n2C)n1Cc1ccc(F)cc1 [NCGC00142036-01] | 21.7 | – |
| O=C(CCCCCCC(=O)Nc1ccccc1)NO [NCGC00168085-01] | 19.3 | – |
| Cc1cc(Cl)ccc1-c1ccc(CNC2CN(C(=O)OC(C)(C)C)C2)cc1 [NCGC00374248-01] | 34.3 | – |
| CC1=C[C@@H](CN2CCN(c3ccccn3)CC2)[C@H](C(C)C)C[C@H]1Cc1nnc(C)o1 [NCGC00392770-01] | 35.3 | – |
| O=C(Nc1ccc(Cl)cc1)c1nc2c(o1)CCN(Cc1cccc(O)c1)CC2 [NCGC00413336-01] | 17.7 | – |
| O=C(NCC1CC1)c1nc2c(o1)CCN(Cc1cccc(F)c1)CC2 [NCGC00413365-01] | 44.4 | – |
| COCCN1Cc2ccc(NCC(C)C)nc2C(C)(C(=O)Nc2cccc(F)c2)C1 (stereo not drawn) [NCGC00414615-01] | 35.3 | – |
| CC(C)c1cc(C(=O)NC2CCN(c3ncccc3C#N)CC2)n(C)n1 [NCGC00431169-01] | 19.3 | – |
| O=C(Cc1c[nH]c2ccccc12)N1CCc2c([nH]c(-c3ccc(F)cc3)nc2=O)C1 [NCGC00439989-01] | 0.00432 | – |
| Cc1cc(C)n(CCC(=O)N2CC(Oc3ccc(-c4nc(-c5ccccc5)no4)cc3)C2)n1 [NCGC00441169-01] | 10.9 | – |
| COc1ccc(-c2nc(CC3CCN(C(=O)c4n[nH]c(=O)c5ccccc45)C3)no2)cc1 (stereo not drawn) [NCGC00443252-01] | 19.3 | – |
| O=C(c1ccc2[nH]ccc2c1)N1CCC2(CC1)NC(c1ccc(Br)cc1)=NO2 [NCGC00446987-01] | 24.3 | – |
| CC(C)c1cccc(NC(=O)c2ccc(CN3C(=O)NC4(CCOCC4)C3=O)cc2)c1 [NCGC00454607-01] | 24.3 | – |
| O=C(Cc1ccccc1F)N1CC(Oc2ccc(-c3noc(-c4cccnc4)n3)cc2)C1 [NCGC00458031-01] | 19.3 | – |
| CCC(C)NC(=O)N1CC(Oc2ccc(-c3noc(C4CCOCC4)n3)cc2)C1 (stereo not drawn) [NCGC00458059-01] | – | CC50 at 48 h (in vitro; hepg2): 12.2 µM |
| CCc1ccc(NC(=O)N2CC(C(=O)N(C)C)C3(CCOCC3)C2)cc1 (stereo not drawn) [NCGC00471776-01] | 0.00769 | – |
| CCCN1C(CC(C)C)=N[S+](=O)([O-])c2cc(NC(=O)c3ccco3)ccc21 [NCGC00473219-02] | – | Individual replicates / Log AC50 (M) [2]: -5.7486 Log AC50 (M) and -5.5986 Log AC50 (M) and -5.8986 Log AC50 (M); AC50 [3]: 3.17e-06 M; AC50 [4]: 3.17e-06 M; Individual replicates / Log AC50 (M) [5]: -6.2986 Log AC50 (M) and -5.9986 Log AC50 (M) and -6.0986 Log AC50 (M); AC50 [6]: 3.17e-06 M; AC50 [7]: 5.22e-06 M; AC50 [8]: 3.56e-06 M |
| CCCN1C(CC(C)C)=N[S+](=O)([O-])c2cc(NC(=O)c3ccc(C)o3)ccc21 [NCGC00510048-01] | – | Individual replicates / Log AC50 (M) [2]: -5.1486 Log AC50 (M); AC50 ([2]; read-out: Individual replicates / Log AC50 (converted)): 7.1 µM; AC50 [3]: 7.38e-06 M; AC50 [4]: 6.58e-06 M; Individual replicates / Log AC50 (M) [5]: -5.5486 Log AC50 (M) and -5.3486 Log AC50 (M) and -5.1986 Log AC50 (M); AC50 [6]: 9.66e-06 M; AC50 [7]: 7.38e-06 M; AC50 [8]: 7.96e-06 M |
